Measured values as given in patent publication US5635519A, “Benzothiazole compounds which are substituted by pyridymethyl” (Eisai Co., Ltd., priority 1991, dated 1997).
Entries after “also recorded” stand apart in the source; their conditions may differ. Structures can show the parent of a compound that is named as a salt.

How the values were obtained:
PGE2 [1] = experiment: Effect on production of prostaglandin E2 (PGE2) from rat peritoneal exudation cells; format: cell-based; details: A23187 2 μg/ml
Description: (§1) After 20 to 24 hours, peritoneal exudation cells were collected from the rats, washed and suspended in the Hank's buffer salt solution (HESS) at a concentration of 5×10^6 /ml. Then 100 μl/well of the obtained cell suspension was […] into a 96-well culture plate (Costar^R) containing 10 μl/well of a sample drug diluted to a given concentration. The plate was incubated at 37° C. for 5 minutes and A23187 (CALBIOCHEM®) was added thereto so as to give a final concentration of 2 μg/ml. After incubating at 37° C. for additional 10 minutes, the plate was transferred on ice and a B[…] solution was added thereto so as to give a final concentration of 100 μM. This plate was centrifuged at 15,000 rpm for 10 minutes and the supernatant was collected. Then the LTB4, TxB2 and PGE2 present in the supernatant were determined by enzyme immunoassay with the use of an EIA Kit manufactured by CAYMAN.

rats = experiment: Toxicity test, 28 days repeated administration; format: in vivo, rat; details: 200 mg/kg once a day for 28 days
LTB4 [2] = experiment: Suppressing production of leukotriene B4 (LTB4) from rat peritoneal exudation cells; format: cell-based; details: A23187 2 μg/ml, read-out: Production suppressing function IC50, LTB4
Description: as §1

TxB2 [3] = experiment: Suppressing production of thromboxane B2 (TxB2) from rat peritoneal exudation cells; format: cell-based; details: A23187 2 μg/ml, read-out: Production suppressing function IC50, TxB2
Description: as §1

LTB4 [4] = experiment: Suppressing production and liberation of LTB4 from TNB-colitis rat colon; format: in vivo; details: 100 mg/kg oral, 6 hours, A23187 5 μg/ml
Description: (§2) Functions of suppressing production and liberation of LTB4 and TxB2 from TNB (trinitrobenzenesulfonic acid)-colitis rat colon Rat TNB-colitis was induced in accordance with the method reported by Morris et al. [Gastroenterology, 96, 795-803 (1989)]. Namely, each of male F344 rats aged 9 weeks was fasted for 2 days and then etherized. A sound (1.2×80 mm, manufactured by Fuehigami Kikai-ten) was inserted into the rectum of the animal to inject 0.25 ml of a 120 mg/ml solution of TNB (a product of Tokyo Kasei K. K.) in 50% ethanol into the colon cavity. The effects of each compound on the production and liberation of LTB4 and TxB2 from the colon of the TNB-colitis rat were evaluated by using the rat 7 days after the injection of TNB. Namely, each compound (5% suspension in methylcellulose) was orally administered to the rat in a dose of 0.5 ml/100 g body weight. After 6 hours, the animal was deeply deeply etherlzed and subjected to autopsy. Thus the colon tissue was extirpated. The colon was incubated in Tyrode's solution (CALBIOCHEM containing 5 μg/ml of A23187-calcium ionophore) at 37° C. for 20 minutes in accordance with the method of […] et al. [Biochim. Biophys. Acta, 878, 184-193 (1986)]. Then LTB4, TxB2 and PGE2 thus produced and liberated into the medium were determined by radioimmunoassay (RXA).

TxB2 [5] = experiment: Suppressing production and liberation of TxB2 from TNB-colitis rat colon; format: in vivo; details: 100 mg/kg oral, 6 hours, A23187 5 μg/ml
Description: as §2

PGE2 [6] = experiment: Suppressing production and liberation of PGE2 from TNB-colitis rat colon; format: in vivo; details: 100 mg/kg oral, 6 hours, A23187 5 μg/ml
Description: as §2

TNB-colitis = experiment: Therapeutic effects on TNB-colitis (MPO in colon); format: in vivo, rat; details: once a day for 11 days
Description: Therapeutic effects on TNB-colitis
Rat TNB-colitis was induced in accordance with the method reported by Morris et al. [Gastroenterology, 96, 795-808 (1989)]. Namely, each of male F344 rats aged 9 weeks was fasted for 2 days and then etherized. A sound (1.2×80 mm, manufactured by Fuchigami Kikai-ten) was inserted into the rectum of the animal to inject 0.25 ml of a 120 mg/ml solution of TNB (a product of Tokyo Kasei K. K.) in 50% ethanol into the colon cavity. 3 days after the injection of TNB, each compound (5% suspension in methylcellulose) was orally administered once a day for 11 days. 14 days after the injection of TNB, the animal was subjected to autopsy and the colon was extirpated. The extent of damage to the colon was evaluated by determining MPO (myeloperoxidase) present therein.
The therapeutic ratio was calculated according to the following equation:
therapeutic ratio=(5% methylcellulose group-ethanol group)-(invention
compound group-ethanol group).

| SMILES | Production suppressing function, PGE2 (in words) (PGE2 [1]) | abnormality caused by the administration (rats) | IC50 (LTB4 [2]) | IC50 (TxB2 [3]) | Suppression ratio (%), LTB4 (LTB4 [4]) | Suppression ratio (%), TxB2 (TxB2 [5]) | Suppression ratio (%), PGE2 (PGE2 [6]) | Therapeutic ratio (%) (TNB-colitis; 10 mg/kg/day oral) | Production suppressing function, PGE2 (in words) (PGE2 [1]; dihydrochloride) | Therapeutic ratio (%) (TNB-colitis; 100 mg/kg/day oral) |
| --- | --- | --- | --- | --- | --- | --- | --- | --- | --- | --- |
| CNc1nc2c(Cc3cccnc3)c(C)c(O)c(C)c2s1 [Example 10, 6-Hydroxy-5,7-dimethyl-2-methylamino-4-(3-pyridylmethyl)benzothiazole] | enhanced at 0.1-10 μM | no abnormality caused by the administration of the drug was observed |  |  |  |  |  |  |  |  |
| COc1cc2nc(NCc3cccnc3)sc2c(OC)c1O [Example 1, 6-Hydroxy-5,7-dimethoxy-2-(3-pyridylmethyl)aminobenzothiazole] | enhanced at 1-10 μM; also recorded: suppressed at 100 μM |  | 90 nM | 5460 nM | 19% | 55% | 10% |  |  |  |
| CNc1nc2c(Cc3cccnc3)c(OC)c(O)c(C)c2s1 [Example 21, 6-Hydroxy-5-methoxy-7-methyl-2-methylamino-4-(3-pyridylmethyl)benzothiazoledihydrochloride] |  |  | 170 nM | 1280 nM |  |  |  |  |  |  |
| COc1c(O)c(C)c2sc(N)nc2c1Cc1cccnc1 [Example 20, 2-Amino-6-hydroxy-5-methoxy-7-methyl-4-(3-pyridylmethyl)benzothiazole dihydrochlorlde] | enhanced at 0.1-100 μM |  | 170 nM | 110 nM |  |  |  |  |  |  |
| C[C@]12C=CC(=O)C=C1CC[C@@H]1[C@@H]2[C@@H](O)C[C@@]2(C)[C@H]1CC[C@]2(O)C(=O)CO [prednisolone, reference compound] |  |  |  |  |  |  |  | 60% |  |  |
| CCNc1nc2c(Cc3cccnc3)c(C)c(O)c(C)c2s1.Cl.Cl [Example 11, 2-Ethylamino-6-hydroxy-5,7-dimethyl-4-(3-pyridylmethyl)benzothiazole dihydrochloride] |  |  | < 100 nM | 100 nM | 94% | 85% | 0% |  | enhanced at 0.1-10 μM; also recorded: suppressed at 100 μM | 41% |
| Cc1c(O)c(C)c2sc(NCc3cccnc3)nc2c1C [Example 4, 6-Hydroxy-4,5,7-trimethyl-2-(3-pyridylmethyl)aminobenzothiazole] | enhanced at 0.1-1 μM; also recorded: suppressed at 10 μM or above |  | < 100 nM | 1950 nM | 93% | 72% | 30% |  |  | 31% |
| Cc1c(O)c(Cc2cccnc2)c2sc(N)nc2c1C.Cl.Cl [Example 15, 2-Amino-6-hydroxy-4,5-dimethyl-7-(3-pyridylmethyl)benzothiazole dihydrochloride] | enhanced at 0.1-100 μM |  | 250 nM | 5310 nM |  |  |  |  |  |  |
| CCNc1nc2c(C)c(Cc3cccnc3)c(O)c(C)c2s1 [Example 14, 2-Ethylamino-6-hydroxy-4,7-dimethyl-5-(3-pyridylmethyl)benzothiazole] | enhanced at 0.1-1 μM; also recorded: suppressed at 100 μM |  | 230 nM | 650 nM | 83% | 67% | 8% |  |  | 32% |
| CCCNc1nc2c(Cc3cccnc3)c(C)c(O)c(C)c2s1.Cl.Cl [Example 12, 6-Hydroxy-5,7-dimethyl-2-propylamino-4-(3-pyridylmethyl)benzothiazole dihydrochloride] |  |  | < 100 nM | 90 nM |  |  |  |  | enhanced at 0.1-10 μM; also recorded: suppressed at 100 μM |  |
| Cc1c(O)c(C)c2sc(N)nc2c1Cc1cccnc1 [Example 18, 2-Amino-6-hydroxy-5,7-dimethyl-4-(3-pyridylmethyl)benzothiazole dihydrochloride] |  |  | 190 nM | 2 nM |  |  |  |  |  |  |
| CCc1c(O)c(OC)c(Cc2cccnc2)c2nc(N)sc12 [Example 22, 2-Amino-7-ethyl-6-hydroxy-5-methoxy-4-(3-pyridylmethyl)benzothiazole dihydrochloride] |  |  | 150 nM | 180 nM |  |  |  |  |  |  |
| CNc1nc2c(C(OC(C)=O)c3cccnc3)c(C)c(O)c(C)c2s1 (centres unmarked) [Example 9, {4-(6-Hydroxy-5,7-dimethyl-2-methylamino)benzothiazoyl}-(3-pyridyl)methyl acetate] | enhanced at 0.1-100 μM |  | 380 nM | 730 nM |  |  |  |  |  |  |
| Cc1cc(O)c(C)c2sc(NCc3cccnc3)nc12 [Example 5, 6-Hydroxy-4,7-dimethyl-2-(3-pyridylmethyl)aminobenzothiazole] | enhanced at 0.1-10 μM; also recorded: suppressed at 100 μM |  | < 100 nM | 4390 nM | 94% | 36% | 30% |  |  | 53% |
| CCNc1nc2c(C)c(C)c(O)c(Cc3cccnc3)c2s1 [Example 17, 2-Ethylamino-6-hydroxy-4,5-dimethyl-7-(3-Pyridylmethyl)benzothiazole] | enhanced at 1 μM; also recorded: suppressed at 100 μM |  | < 100 nM | 2000 nM | 89% | 53% | 41% |  |  | 40% |
| CCc1c(O)c(OC)c(Cc2cccnc2)c2nc(NC)sc12.Cl.Cl [Example 23, 7-Ethyl-6-hydroxy-5-methoxy-2-methylamino-4-(3-pyridylmethyl)benzothiazole dihydrochloride] |  |  | < 100 nM | 330 nM |  |  |  |  | enhanced at 0.1-10 μM; also recorded: suppressed at 100 μM |  |
